From ChEMBL document CHEMBL1126745, “2,2-Dialkylnaphthalen-1-ones as new potassium channel activators” (J Med Chem, 1993) come the findings set out here.

Experiment [1] is filed under the species Cavia porcellus. Description: In vitro inhibition of spontaneous tone of guinea pig tracheal spirals. It is filed as functional. Conditions: Trachea.
For experiment [2], the species on record is Rattus norvegicus. Description: In vitro inhibition of noradrenaline-induced contractions in rat portal vein. It is filed as functional.
Experiment [3] deals with Rattus norvegicus. Description: Effective dose (after peroral administration) required to decrease systolic blood pressure by 30 mmHg in spontaneously hypertensive rats (SHR). The experiment is classed as functional. Conditions: Artery, po.
For experiment [4], the system named is Rattus norvegicus. Kind of experiment: Change in systolic blood pressure at intervals of 1 hr after oral administration of 1 mg/kg of compound in spontaneously hypertensive rats (in vivo). It is filed as functional, Artery.
The species entered for experiment [5] is Rattus norvegicus. Kind of experiment: Inhibition of noradrenaline-induced contractions in rat portal vein; Insoluble. It is filed as functional.
For experiment [6], the system named is Rattus norvegicus. Kind of experiment: Change in systolic blood pressure at intervals of 1 hr after oral administration of 0.1 mg/kg of compound in spontaneously hypertensive rats (in vivo). It is filed as functional, Artery.
The species entered for experiment [7] is Cavia porcellus. Kind of experiment: Inhibition of spontaneous tone of guinea pig tracheal spirals; Insoluble. It is filed as functional, Trachea.

Molecules are shown by their SMILES.

One may read the IC50 as the concentration at which inhibition is half-maximal. Take `CC1(C)C=C(n2ccccc2=O)c2cc(C#N)ccc2C1=O`: the values for the IC50 in the experiment listed under Cavia porcellus [1] and in the experiment listed under Rattus norvegicus [2] were 500 nM and 600 nM, respectively. For the same compound, the ED30 in the experiment with Rattus norvegicus [3] amounted to 4 µg/kg.

Consider `CC1(C)C(=O)c2ccc(C#N)cc2[C@@H](Oc2ccc(=O)[nH]n2)[C@@H]1O`, for which the figures for the IC50 in the experiment listed under Cavia porcellus [1] and in the experiment filed under Rattus norvegicus [2] were 2100 nM and 8800 nM, respectively. In the experiment with Rattus norvegicus [3], this compound gave an ED30 of 6 µg/kg.

In the case of `Cn1nc(O[C@@H]2c3cc(C#N)ccc3C(=O)C(C)(C)[C@H]2O)ccc1=O`, the IC50 came out at 600 nM in the experiment filed under Cavia porcellus [1] and 2800 nM in the experiment listed under Rattus norvegicus [2]. Besides, the ED30 in the experiment on Rattus norvegicus [3] is 40 µg/kg.

In the case of `C#Cc1ccc2c(c1)C(n1ccccc1=O)=CC(C)(C)C2=O`, the IC50 in the experiment filed under Cavia porcellus [1] is 200 nM; in the experiment filed under Rattus norvegicus [2], 1000 nM. In the experiment on Rattus norvegicus [3], this compound registered an ED30 of 2 µg/kg. Besides, the “Max fall in blood pressure” value in the experiment on Rattus norvegicus [4] was determined as 94 mmHg.

In turn, `CC1(C)C=C(n2ccccc2=O)c2cc(C(F)(F)C(F)(F)F)ccc2C1=O` returned an ED30 in the experiment on Rattus norvegicus [3] of 2 µg/kg. The IC50 entry in the experiment listed under Rattus norvegicus [5] and in the experiment filed under Cavia porcellus [7] was “Insoluble” in each case. Besides, the “Max fall in blood pressure” value in the experiment on Rattus norvegicus [6] is reported as 81 mmHg.

Consider `CC1(C)C=C(n2ccccc2=O)c2cc(Br)ccc2C1=O`, for which the IC50 came out at 200 nM in the experiment filed under Cavia porcellus [1] and 500 nM in the experiment filed under Rattus norvegicus [2]. This compound also yielded an ED30 with Rattus norvegicus [3] of 9 µg/kg. For the same compound, the “Max fall in blood pressure” value with Rattus norvegicus [6] is 42.6 mmHg.

Take `CC1(C)Oc2ccc(C#N)cc2[C@@H](N2CCCC2=O)[C@@H]1O` [LEVCROMAKALIM]: the values for the IC50 in the experiment filed under Cavia porcellus [1] and in the experiment filed under Rattus norvegicus [2] were 300 nM and 100 nM, respectively. This compound registered an ED30 in the experiment with Rattus norvegicus [3] of 10 µg/kg. In the experiment with Rattus norvegicus [6], the “Max fall in blood pressure” value turned out to be 73 mmHg.
